From patent US20110009352A1, “RESTORATIVE AGENT FOR ANTIBACTERIAL PEPTIDE PRODUCTION ABILITY” (Minophagen Pharmaceutical Co., LTD., priority 2009, published 2011)

B1: IL-10: interleukin-10 produced by known recombinant DNA technology, 1 ng/ml (Reference Example 19) (protein, UniProt P18893 19-178, looked up)
Interleukin-10: SRGQYSREDNNCTHFPVGQSHMLLELRTAFSQVKTFFQTKDQLDNILLTDSLMQDFKGYLGCQALSEMIQFYLVEVMPQAEKHGPEIKEHLNSLGEKLKTLRMRLRRCHRFLPCENKSKAVEQVKSDFNKLQDQGVYKAMNEFDIFINCIEAYMMIKMKS

Key:
[1] = test system: IL-10; assay: IL-10 production by Gr-1+CD11b+ cells (ELISA); type: cell-based, mouse; details: 10 μg/ml; 48 hours; vs no glycyrrhizin
Procedure: (§1) A normal mouse was given a burn injury on its dorsal side, and after 12 hours, Gr-1^+CD11b^+ cells (2×10^6 cells/ml) were collected from the skin tissue around the burn site. Using the keratinocyte culture medium as a medium, the Gr-1^+CD11b^+ cells were cultured in a 96-well plate at 37° C. in the co-present of glycyrrhizin in an amount of 10 μg/ml. After 48 hours from the initiation of culture, the amounts of CCL2 and IL-10 in the supernatant of the culture fluid were measured by ELISA. […] The experiment was carried out in the same manner as in Example 10, except that glycyrrhizin was not made to be co-present, and the amounts of CCL2 and IL-10 in the supernatant of the culture fluid were measured.

[2] = test system: MBD-1; assay: Amount of MBD-1 in skin tissue homogenate around the burn site (ELISA); type: in vivo; details: 10 mg/kg i.p. 2 hours after burn, skin collected 0.5-24 hours after burn
Procedure: A normal mouse was given a burn injury on its dorsal side, and was intraperitoneally administered with glycyrrhizin in an amount of 10 mg per kg of body weight of the mouse (an amount of 10 mg/kg), 2 hours after the occurrence of burn injury. The skin tissue was collected from the surroundings of the burn site after 0.5 hours, 6 hours, 12 hours, 18 hours and 24 hours from the occurrence of burn injury, and the collected skin tissues were homogenized. The amount of MBD-1 in the homogenate liquid was measured by ELISA. The horizontal axis of the graph of FIG. 5 represents the time (hours) after the occurrence of burn injury. The experiment was carried out in the same manner as in Example 3, except that physiological saline was intraperitoneally administered instead of glycyrrhizin, and the amount of MBD-1 in the homogenate liquid was measured.

[3] = test system: MBD-1; assay: Amount of MBD-1 in culture supernatant of epidermal keratinocytes and/or Gr-1+CD11b+ cells (Transwell, ELISA); type: cell-based, mouse; details: 10 μg/ml, 48 hours
Procedure: Epidermal keratinocytes (EK) were collected from the skin of a normal mouse, and a cell solution was prepared to a concentration of 2×10^6 cells/ml using RPMI1640 medium supplemented with 10% inactivated fetal bovine serum. Furthermore, a normal mouse was given a burn injury on its dorsal side, and after 12 hours, Gr-1^+CD11b^+ cells were collected from the skin tissues around the burn site. A cell solution of the collected cells was prepared to a concentration of 5×10^5 cells/ml using RPMI1640 medium supplemented with 10% inactivated fetal bovine serum. In the co-presence of glycyrrhizin in an amount of 10 μg/ml, the epidermal keratinocytes and the Gr-1^+CD11b^+ cells were cultured in a same Transwell at 37° C. After 48 hours from the initiation of culture, the amount of MBD-1 in the supernatant of the culture fluid was measured by ELISA. The experiment was carried out in the same manner as in Example 4, except that glycyrrhizin was not allowed to be co-present, and the amount of MBD-1 in the supernatant of the culture fluid was measured. The experiment was carried out in the same manner as in Example 4, except that only epidermal keratinocytes (2×10^6 cells/ml) were cultured without allowing glycyrrhizin to be co-present, and the amount of MBD-1 in the supernatant of the culture fluid was measured. The experiment was carried out in the same manner as in Example 4, except that only epidermal keratinocytes (2×10^6 cells/ml) were cultured in the co-presence of glycyrrhizin in an amount of 10 μg/ml, and the amount of MBD-1 in the supernatant of the culture fluid was measured. The experiment was carried out in the same manner as in Example 4, except that only Gr-1^+CD11b^+ cells (5×10^5 cells/ml) were cultured without allowing glycyrrhizin to be co-present, and the amount of MBD-1 in the supernatant of the culture fluid was measured.

[4] = test system: Pseudomonas aeruginosa; assay: Survival rate of burn-injured, Pseudomonas aeruginosa-administered mice; type: in vivo, mouse
Procedure: A normal mouse was given a burn injury on the dorsal side, and Pseudomonas aeruginosa was applied to the burn site in an amount of 100 CFU (Colony-Forming Units). Subsequently, glycyrrhizin was intraperitoneally administered to the mouse at 2 hours, 24 hours and 72 hours after the occurrence of burn injury, each time in an amount of 10 mg per kilogram of body weight of the mouse (an amount of 10 mg/kg), and it was checked whether the mouse was alive or dead. The same operation was carried out on 10 mice, and the survival rate of the mice was checked. The horizontal axis of the graph of FIG. 1 represents the number of days (days) after the Pseudomonas aeruginosa infection.
The experiment was carried out in the same manner as in Example 1, except that physiological saline was intraperitoneally administered instead of glycyrrhizin, and the survival rate of the mice was checked.

[5] = test system: Pseudomonas aeruginosa; assay: Amount of Pseudomonas aeruginosa in blood and spleen homogenate specimens of infected burn mice (colony counting); type: in vivo; details: 100 CFU, 10 mg/kg i.p. at 2 and 12 hours after infection, 48 hours after infection
Procedure: A normal mouse was given a burn injury on its dorsal side, and was infected at the burn site with Pseudomonas aeruginosa in an amount of 100 CFU. Subsequently, glycyrrhizin was intraperitoneally administered to the mouse at 2 hours and 12 hours after the infection with Pseudomonas aeruginosa, each time in an amount of 10 mg per kilogram of body weight of the mouse (an amount of 10 mg/kg). Subsequently, after 48 hours from the infection with Pseudomonas aeruginosa, blood and spleen were collected from the mouse, and the amounts of Pseudomonas aeruginosa in the blood specimen and the spleen homogenate specimen were measured by a colony-counting method. The vertical axis of the graph of FIG. 4 represents the amount of Pseudomonas aeruginosa in 1 ml of the specimen (amount of CFU). The experiment was carried out in the same manner as in Example 2, except that physiological saline was intraperitoneally administered instead of glycyrrhizin, and the amounts of Pseudomonas aeruginosa in the blood specimen and the spleen homogenate specimen were measured.

[6] = test system: MBD-1; assay: Quantity-dependency of glycyrrhizin on MBD-1 production ability restoration (Transwell co-culture, ELISA); type: cell-based, mouse; details: 48 hours
Procedure: Epidermal keratinocytes (2×10^6 cells/ml) were collected from the skin of a normal mouse. Furthermore, a normal mouse was given a burn injury on its dorsal side, and after 12 hours, Gr-1^+CD11b^+ cells (5×10^5 cells/ml) were collected from the skin tissues around the burn site. Using the medium for keratinocyte culture as a medium, and making glycyrrhizin to be co-present in an amount of 1 μg/ml (Example 6), 10 μg/ml (Example 7), 100 μg/ml (Example 8) or 300 μg/ml (Example 9), the epidermal keratinocytes and the Gr-1^+CD11b^+ cells were cultured in a same Transwell at 37° C. The amount of MBD-1 in the supernatant of the culture fluid after 48 hours from the initiation of culture was measured by ELISA. The results are shown in the semilogarithmic graph of FIG. 8. The experiment was carried out in the same manner as in Examples 6 to 9, except that glycyrrhizin was not made to be co-present, and the amount of MBD-1 in the supernatant of the culture fluid was measured. The results are shown in the bar graph of FIG. 8. […] Furthermore, the two graphs share the vertical axis (the amount of MBD-1).

[7] = test system: CCL2; assay: CCL2 production by Gr-1+CD11b+ cells (ELISA); type: cell-based, mouse; details: 10 μg/ml; 48 hours; vs no glycyrrhizin
Procedure: as §1

[8] = test system: MBD-3; assay: Amount of MBD-3 in culture supernatant of LPS-treated epidermal keratinocytes and/or Gr-1+CD11b+ cells (Transwell, ELISA); type: cell-based, mouse; details: 10 μg/ml, 48 hours
Procedure: Epidermal keratinocytes (EK) were collected from the skin of a normal mouse, and a cell solution was prepared to a concentration of 2×10^6 cells/ml using RPMI1640 medium supplemented with 10% inactivated fetal bovine serum. In order to induce MBD-3, the cells were treated with lipopolysaccharides (LPS) in an amount of 1 μg/ml for 6 hours. Furthermore, a normal mouse was given a burn injury on its dorsal side, and after 12 hours, Gr-1^+CD11b^+ cells were collected from the skin tissues around the burn site. A cell solution of the collected cells was prepared to a concentration of 5×10^5 cells/ml using RPMI1640 medium supplemented with 10% inactivated fetal bovine serum. In the co-presence of glycyrrhizin in an amount of 10 μg/ml, the LPS-treated epidermal keratinocytes and the Gr-1^+CD11b^+ cells were cultured in a same Transwell at 37° C. After 48 hours from the initiation of culture, the amount of MBD-3 in the supernatant of the culture fluid was measured by ELISA. The experiment was carried out in the same manner as in Example 5, except that glycyrrhizin was not allowed to be co-present, and the amount of MBD-3 in the supernatant of the culture fluid was measured. The experiment was carried out in the same manner as in Example 5, except that only LPS-treated epidermal keratinocytes (2×10^6 cells/ml) were cultured without allowing glycyrrhizin to be co-present, and the amount of MBD-3 in the supernatant of the culture fluid was measured. The experiment was carried out in the same manner as in Example 5, except that only LPS-treated epidermal keratinocytes (2×10^6 cells/ml) were cultured in the co-presence of glycyrrhizin in an amount of 10 μg/ml, and the amount of MBD-3 in the supernatant of the culture fluid was measured. The experiment was carried out in the same manner as in Example 5, except that only Gr-1^+CD11b^+ cells (5×10^5 cells/ml) were cultured without allowing glycyrrhizin to be co-present, and the amount of MBD-3 in the supernatant of the culture fluid was measured.

[9] = test system: MBD-1; assay: MBD-1 production of epidermal keratinocytes cultured with recombinant CCL2 and/or IL-10; type: cell-based, mouse; details: recombinant CCL2 5 ng/ml and/or IL-10 1 ng/ml; 48 hours
Procedure: Epidermal keratinocytes (2×10^6 cells/ml) collected from the skin of a normal mouse were cultured at 37° C. in the co-presence of CCL2 (5 ng/ml) (Reference Example 18), IL-10 (1 ng/ml) (Reference Example 19), or CCL2 (5 ng/ml) and IL-10 (1 ng/ml) (Reference Example 20), which had been produced by a known recombinant DNA technology using a recombinant. The amount of MBD-1 in the supernatant of the culture fluid after 48 hours from the initiation of culture was measured by ELISA.

| Molecule | IL-10 production ability of Gr-1+CD11b+ cells [1] | amount of MBD-1 in skin tissue homogenate vs saline mouse [2] | amount of MBD-1 in culture supernatant vs no glycyrrhizin ([3]; co-culture of epidermal keratinocytes and Gr-1+CD11b+ cells) | MBD-1 production ability inhibiting effect of Gr-1+CD11b+ cells against epidermal keratinocytes ([3]; co-culture) | MBD-1 production ability promoting effect against epidermal keratinocytes ([3]; epidermal keratinocytes alone) | deaths among the mice (survival) ([4]; 100 CFU P. aeruginosa at burn site, 10 mg/kg i.p. at 2, 24 and 72 hours after burn, up to the 7th day, 10 mice) | survival rate compared with mice not administered with glycyrrhizin (physiological saline) ([4]; 100 CFU P. aeruginosa, 10 mg/kg i.p. at 2, 24 and 72 hours, after 2 days and on) | amount of Pseudomonas aeruginosa in the blood specimen vs saline mouse [5] | amount of Pseudomonas aeruginosa in the spleen homogenate specimen vs saline mouse [5] | MBD-1 production ability restoring effect ([6]; glycyrrhizin 10 μg/ml (Example 7)) | MBD-1 production ability restoring effect ([6]; glycyrrhizin 100 μg/ml (Example 8)) | MBD-1 production ability restoring effect ([6]; glycyrrhizin 300 μg/ml (Example 9)) | CCL2 production ability of Gr-1+CD11b+ cells [7] | MBD-3 production ability promoting effect against LPS-treated epidermal keratinocytes ([8]; LPS-treated epidermal keratinocytes alone) | amount of MBD-3 in culture supernatant vs no glycyrrhizin ([8]; co-culture of LPS-treated epidermal keratinocytes and Gr-1+CD11b+ cells) | MBD-3 production ability inhibiting effect of Gr-1+CD11b+ cells against LPS-treated epidermal keratinocytes ([8]; co-culture) | MBD-1 production ability of the epidermal keratinocytes [9] |
| --- | --- | --- | --- | --- | --- | --- | --- | --- | --- | --- | --- | --- | --- | --- | --- | --- | --- |
| CC1(C)[C@@H](O[C@H]2O[C@H](C(=O)O)[C@@H](O)[C@H](O)[C@H]2O[C@@H]2O[C@H](C(=O)O)[C@@H](O)[C@H](O)[C@H]2O)CC[C@]2(C)[C@H]3C(=O)C=C4[C@@H]5C[C@@](C)(C(=O)O)CC[C@]5(C)CC[C@@]4(C)[C@]3(C)CC[C@@H]12 [glycyrrhizin] | inhibited | larger | larger | reduced this inhibiting effect | did not have an MBD-1 production ability promoting effect | none of the individuals died | markedly high | markedly reduced | markedly reduced | particularly excellent | particularly excellent | particularly excellent | inhibited | did not have an MBD-3 production ability promoting effect | larger | reduced this inhibiting effect |  |
| CCL2: chemokine CCL2 produced by known recombinant DNA technology, 5 ng/ml (Reference Example 18) |  |  |  |  |  |  |  |  |  |  |  |  |  |  |  |  | inhibited |
| B1 |  |  |  |  |  |  |  |  |  |  |  |  |  |  |  |  | inhibited |
